One assay relates to CaSki cells. Kind of assay: Cell killing (MTS cell viability) assay. Type of assay: cell-based, human. As for the experimental part: (§1) Cells were seeded in a 96 well plate at 5.000-1 0.000 c/w in 100 µL/well and incubated overnight at 37° C. […] The media was removed from the cell culture plate and replaced by 180 µL culture media, followed by the addition of 20 µL treatment-mix/well. […] In the case that endosomal acidification inhibitors (chloroquine (Sigma Aldrich) or bafilomycin A1 (Enzo Life Sciences)) were used, the cell culture media in step 1 of treatment was replaced by 180 µL media containing 1 µM chloroquine or 0.2 µM bafilomycin A1. The plate was incubated for 1 hour at 37° C., before the 10x treatment-mix samples were added. The remaining incubation and treatment steps were performed according to standard procedures known in the field.
(§2) After treatment the cells were incubated for 72 hr at 37° C. before the cell viability was determined by a MTS-assay, performed according to the manufacturer’s instruction (CellTiter 96® AQueous One Solution Cell Proliferation Assay, Promega). Briefly, the MTS solution was diluted 20x in DMEM without phenol red (PAN-Biotech GmbH) supplemented with 10% FBS (PAN-Biotech GmbH). The cells were washed once with 200 µL PBS per well, after which 100 µL diluted MTS solution was added per well. The plate was incubated for approximately 20-30 minutes at 37° C. Subsequently, the optical density at 492 nm was measured on a Thermo Scientific Multiskan FC plate reader (Thermo Scientific). For quantification the background signal of ‘medium only’ wells was subtracted from all other wells, before the ratio of […].

For another assay, the system named is HeLa cells. Kind of assay: Cell killing (MTS cell viability) assay. The format is cell-based, human. The conditions noted are these: +1500 nM SO1861 (unconjugated). How it is done:
as §1, §2

The subject of a further assay is JIMT-1 cells. Kind of assay: Cell killing (MTS cell viability) assay. The conditions noted are these: +1500 nM SO1861 (unconjugated). Type of assay: cell-based, human. How it is done: as §1, §2
The test system of the next assay is A2058 cells. The assay is described as follows: Cell killing (MTS cell viability) assay. Type of assay: cell-based, human. As for the experimental part:
(§3) After treatment the cells were incubated for 72 hr at 37° C. before the cell viability was determined by a MTS-assay, performed according to the manufacturer’s instruction (CellTiter 96® AQueous One Solution Cell Proliferation Assay, Promega). Briefly, the MTS solution was diluted 20× in DMEM without phenol red (PAN-Biotech GmbH) supplemented with 10% FBS. The cells were washed once with 200 µL/PBS well, after which 100 µL diluted MTS solution was added/well. The plate was incubated for approximately 20-30 minutes at 37° C. Subsequently, the OD at 492 nm was measured on a Thermo Scientific Multiskan FC plate reader (Thermo Scientific). For quantification the background signal of ‘medium only’ wells was subtracted from all other wells, before the cell viability percentage of treated/untreated cells was calculated, by dividing the background corrected signal of treated wells over the background corrected signal of the untreated wells (x 100).
as §1, §2

The subject of another assay is MDA-MB-468 cells. Kind of assay: Cell killing (MTS cell viability) assay. The format is cell-based, human. How it is done: as §3, §1, §2
Another assay relates to SK-BR-3 cells. The assay is described as follows: Cell killing (MTS cell viability) assay. Type of assay: cell-based, human. How it is done: as §3, §1, §2
The subject of a further assay is endosomal acidification. Kind of assay: Cell viability assay with endosomal acidification inhibitors. Type of assay: cell-based. To be noted: targeted 2-component system; chloroquine or bafilomycin A1. As for the experimental part:
as §1

For another assay, the target named is human EGFR (human) (UniProt P00533). The assay is described as follows: cell-based or functional assay.
[1] abbreviates: +50 pM VHH-EGFR-dianthin (fixed).
The mark [2] stands for this setting: +50 pM CD71VHH-dianthin (fixed).
[3] abbreviates: +50 pM VHH-HER2-dianthin (fixed).

The IC50 is the concentration that gives 50% inhibition.

A value given as a limit tells only on which side of the number the result lay.

Consider Saporin, for which the IC50 was 0.015 nM with CaSki cells (+1500 nM SO1861 (unconjugated)), 0.03 nM with HeLa cells and 0.03 nM with JIMT-1 cells.

As for `CC(=O)O[C@H]1[C@H](O[C@@H]2OC[C@@H](O)[C@H](O)[C@H]2O)[C@@H](O)[C@H](O[C@@H]2[C@H](O)[C@@H](O[C@@H]3O[C@@H](C)[C@H](O[C@@H]4OC[C@@H](O)[C@H](O[C@@H]5O[C@H](CO)[C@@H](O)[C@H](O)[C@H]5O)[C@H]4O)[C@@H](O)[C@H]3O)[C@H](OC(=O)[C@]34CCC(C)(C)C[C@H]3C3=CC[C@@H]5[C@@]6(C)CC[C@H](O[C@@H]7O[C@H](C(=O)O)[C@@H](O)[C@H](O[C@@H]8OC[C@@H](O)[C@H](O)[C@H]8O)[C@H]7O[C@@H]7O[C@H](CO)[C@H](O)[C@H](O)[C@H]7O)[C@@](C)(C=O)[C@@H]6CC[C@@]5(C)[C@]3(C)C[C@H]4O)O[C@@H]2C)O[C@@H]1C` [SO1861], the IC50 is 200 nM in the assay on A2058 cells (+50 pM VHH-CD71-dianthin (fixed)); 200 nM in the assay with MDA-MB-468 cells (setting [2]); 300 nM with MDA-MB-468 cells (setting [1]); 800 nM with SK-BR-3 cells (+1.5 pM EGF-dianthin (fixed), Ex.9/Table A6: calculated on concentration SO1861); 650 nM with SK-BR-3 cells (+10 pM EGF-dianthin (fixed), Table A6: calculated on concentration SO1861); 200 nM in the assay with SK-BR-3 cells (setting [2]). Besides, the half-maximal inhibitory concentration (IC50) was 700 nM in the assay on SK-BR-3 cells (setting [1]); 200 nM with SK-BR-3 cells (setting [3]); 700 nM in the assay with CaSki cells (+10 pM cetuximab-saporin (fixed), calculated on concentration SO1861); no less than 1000 nM in the assay with CaSki cells (+50 pM trastuzumab-saporin (fixed), Ex.9/Table A6: calculated on concentration SO1861). Also, the IC50 cell killing result in the assay with A2058 cells (setting [1]) is given as “no activity”; in the assay on MDA-MB-468 cells (setting [3]), “no enhanced activity compared to SO1861alone”. Further, in the assay on endosomal acidification, the “SO1861 function with endosomal acidification inhibitors” value was “function is reduced when acidification of endosomes is blocked”.

In the assay with human EGFR (human), “cetuximab-saporin (monoclonal antibody recognizing and binding EGFR, conjugated to the protein toxin, saporin)” had a cell killing (MTS) on MDA-MB-468 cells (EGFR++), cetuximab-saporin alone, IC50 of 0.3 nM.

Values taken from patent US20230302140A1, “CONJUGATE OF A SINGLE DOMAIN ANTIBODY, A SAPONIN AND AN EFFECTOR MOLECULE, PHARMACEUTICAL COMPOSITION COMPRISING THE SAME, THERAPEUTIC USE OF SAID PHARMACEUTICAL COMPOSITION” (SAPREME TECHNOLOGIES B.V., priority 2020, published 2023).
